Values quoted from earlier work as cited in patent publication US20260216162A1, “SELECTIVE FIASMA TREATMENT” (VALO HEALTH, INC., priority 2023, published 2026).

What was measured:
[1] = test system: acid sphyingomyelinase (ASMase); conditions: final concentration of 10 µM, 30 minutes, 37° C.; normalized to control cells treated with the solvent alone

Residual ASMase Activity (%) [1]	Log P	Compound
13.0%		CNCCC(Oc1ccc(C(F)(F)F)cc1)c1ccccc1 (stereo not drawn) [Fluoxetine]
31.7%	3.9	Fc1ccc([C@@H]2CCNC[C@H]2COc2ccc3c(c2)OCO3)cc1 [Paroxetine]
